This note sets out measurements from patent US20030124742A1, “Conjugates targeted to target receptors” (priority 2001, published 2003).

Converted amounts (≈) assume the structure as drawn. Like-named read-outs stand apart in the source and are kept apart here. Where no end group is shown, it is not given here.

The test system of data set [1] is PC3 human prostate carcinoma cell line. The experiment in a line: EDR assay, PC3 (storage stability of stock solutions). The format is cell-based. Here is the method: (§1) The PC3 prostate carcinoma, as well as the MCF7-WT and SK-BR3 breast carcinoma cell lines were obtained from ATCC and maintained in RPMI 1640 (GibcoBRL, Grand Island, N.Y.) supplemented with 10% fetal bovine serum (FBS, Omega Scientific, Tarzana, Calif.), 100 IU/ml penicillin, 100 μg/ml streptomycin, and 2 mM L-glutamine (Irvine Scientific, Irvine, Calif.) (complete growth medium). Cells were harvested with 0.25% trypsin (GibcoBRL) after washing twice with phosphate-buffered saline (PBS, Irvine Scientific), then washed with complete medium, counted and checked for viability using trypan blue. Different passages of the cell line were tested for their resistance to WL68-DXR vs. native doxorubicin to evaluate the stability of WL68-DXR under storage at −70° C. […]
(§2) 103 mg of 20 KD mpPEG-8PA-WL68-DXR (further referred to as WL-68-DXR) was dissolved in 10.3 ml of sterile PBS, aliquoted in plastic 1 ml tubes and kept at −70° C. until analysis. […] Positive controls were determined using at least 2 wells treated with an extremely high dose of cisplatin. […]
(§3) Cells were incubated with drugs under standard culture conditions for five days. […] The radioactivity trapped on the filters was counted with a Beckman scintillation counter. The fraction of surviving cells was determined by comparing ^3H-TdR incorporation in treated (experimental points) and untreated (negative control) wells. […]

Data set [2] concerns HER-2-negative fresh breast carcinoma specimens. Put plainly: EDR assay, HER-2-negative fresh breast carcinoma specimens. Format: cell-based. Conditions: Homo sapiens, nine specimens. Here is the method: (§4) Tumor cells were suspended in 0.12% soft agar in complete medium, and plated at different cell concentrations (typically, 3,000 cells for the cell lines and 15,000 cells per well for fresh tumor specimens) onto a 0.4% agarose underlayer in 24-well plates. Plating cells on agarose underlayers supports the proliferation only of the transformed cells, ensuring that the growth signal stems from the malignant component of the tumor.
(§5) 103 mg of 20 KD mpPEG-8PA-WL68-DXR (further referred to as WL-68-DXR) was dissolved in 10.3 ml of sterile PBS, aliquoted in plastic 1 ml tubes and kept at −70° C. until analysis. The doxorubicin equivalent for the WL68-DXR stock solution was 4.06 μg/ml. […] Positive controls were determined using at least 2 wells treated with an extremely high dose of cisplatin. […]
as §3
(§6) A monoclonal antibody against HER-2 (clone 4E200) was purchased from Neomarkers, Inc. (Fremont, Calif.) and used at 1 μg/ml. Optimal working concentrations and incubation time for the HER-2 antibody have been determined in preliminary experiments. […]

In data set [3] the test system is SK-BR3 (HER-2 positive) breast carcinoma cell line. The experiment in a line: EDR assay, SK-BR3. The format is cell-based. Conditions: Homo sapiens, SK-BR-3, 120 h; 5 days of incubation. As for the experimental part: as §1, §2, §3
Data set [4] in a line: Body distribution of DXR in mice bearing HuT 78 xenografts. Format: in vivo, NIH III mice. The settings on record: 2.5 mg/kg, 72 hours. Here is the method: NIH III mice bearing HuT 78 xenografts were administered with conjugated DXR and free DXR at a dose of 2.5 mg/kg of DXR equivalent. After 72 hours, the mice were sacrificed and tissue samples were prepared for analysis for free or total DXR.
The total amount of DXR was determined after hydrolysis of free and conjugated DXR to generate aglycon. The amount of bound conjugate was computed as the difference between total and free DXR.

Data set [5] relates to HER-2-positive fresh breast carcinoma specimens. The experiment in a line: EDR assay, HER-2-positive fresh breast carcinoma specimens. Format: cell-based. Conditions: Homo sapiens, read-out: IC50, HER-2-positive group. As for the experimental part:
as §4, §5, §3, §6

Data set [6] has as its system human ovarian cancer cell line A-2780R. Put plainly: In vitro cytotoxicity assay (MTS), A-2780R. The format is cell-based. Conditions: DXR equivalent concentration, read-out: IC50 against A-2780R. As for the experimental part: (§7) On the day prior to starting the assay, cells were fed with fresh tissue culture medium (RPMI 1640+10% FCS for most cell lines, use other media as appropriate). A conjugate test solution was prepared in culture medium, with a concentration that is twice the final desired test concentration. Typically with doxorubicin (DXR) conjugates, a DXR equivalent concentration range of 100 μM down to 0.1 μM, using 1:2 serial dilutions is used. All concentrations are calculated and reported in terms of final DXR concentration (as opposed to total conjugate concentration).
(§8) The cell suspension is prepared at a concentration of 1-2×10^6 cells/Ml in culture medium. To each well of a 96-well, flat-bottom, microtiter plate (Falcon Microtest III assay plates, No. 3872) was added 50 μl of the cell suspension prepared above. A 50 μl of conjugate solution was added to each well of the assay plate. […]
(§9) The following blank and control wells were prepared: Plate Blank=100 μl of tissue culture medium only; cell control=50 μl cell suspension+50 μl tissue culture medium; and conjugate Blanks=50 μl 2× conjugate solution +50 μl tissue culture medium. […] Using a 96-well microplate reader, the absorbance of each well was measured at 490 nm. For each conjugate test concentration, the % cytotoxicity was calculated using the following formula: % Cytotoxicity=(1−[Abs. Conjugate Test Group/Abs. Cell Control])×100.

Data set [7] deals with human ovarian cancer cell line A-2780R tumor. The experiment in a line: In vivo efficacy, murine tumor model of subcutaneously implanted A-2780R. The settings on record: 30 mg/kg. Here is the method:
Efficacy of mpPEG-WL00-DXR conjugate was also compared with DOXIL® in a murine tumor model generated by subcutaneously implanting human ovarian cancer cell line A-2780R. […] At day 21, the tumor growth inhibition in the animal treated with TM 1192-029-1 animal was 92%. The unconjugated DXR at 30 mg/kg gave 70% tumor growth inhibition.

The test system of the next data set is HUT 78 tumor. Put plainly: In vivo efficacy, murine model of human cutaneous T-cell lymphoma (HUT 78). Here is the method: In vitro cytotoxicity against human T-cell lymphoma cell line HUT 78 and human ovarian cancer cell lines A-2780R, as well as in vitro screening on several fresh human tumor specimens from different types of cancer were evaluated. The in vivo efficacy was determined using murine models for human cutaneous T-cell lymphoma. Free doxorubicin and liposomal doxorubicin (DOXIL®) were used as controls for the experiments. The “WL00” moiety comprises the GFLG peptide (SEQ ID NO 1).
The efficacy of mpPEG-WL00-DXR in vivo was also evaluated. A single dose treatment of 30 mg/kg was used for the conjugate and DOXIL®, whereas 15 mg/kg (equivalent doxorubicin dose) was used for unconjugated DXR. […] The percent tumor growth inhibition at day 15 for CA 1043-136, TM 1192-029-1 and TM 1192-038 was 84, 79 and 84, respectively.
In addition, a DXR conjugate with 8.7% DXR loading (TM 1192-107-1) was evaluated in both human T-lymphoma cell line HUT 78 and ovarian cancer cell line A-2780R animal tumor model. […] It is also worth noting that the conjugate CA 1043-36 was very active after two years of storage as a lyophilized powder at 4° C.

The subject of data set [8] is human T lymphoma cell line HUT 78. Put plainly: In vitro cytotoxicity assay (MTS), HUT 78. Format: cell-based. The settings on record: HuT78, 48 h, DXR equivalent concentration, about two days incubation, read-out: IC50 against HUT 78. Here is the method: as §7, §8, §9
The subject of data set [9] is MCF7-WT (HER-2 negative) breast carcinoma cell line. The experiment in a line: EDR assay, MCF7-WT. The format is cell-based. Conditions: Homo sapiens, 120 h, 5 days of incubation. As for the experimental part: as §1, §2, §3
Data set [10] has as its target T1, HER-2 receptor (human epidermal growth factor receptor-2) (human, UniProt P04626 23-1255).
T1 construct: whole, on cells; Presented on the HER-2-positive SK-Br3 cell line; Raji cells served as the negative control; also called c-erbB-2; neu
Put plainly: 125I-labelled peptide binding to SK-Br3 cells in suspension, cell-bound counts (Example 17). Here is the method: WL38 was iodinated by using lodo-Gen method described in herein. Unbound ¹²⁵I was removed by ion-exchange chromatography with MP-1 resin, (BIO-RAD AG). SK-Br3 cells were removed from the flask bottom by the cell scraper, suspended, and centrifuged at 500×g for 1 min. The cell pellet was suspended in the binding buffer (50 mM PBS, 30 mM NaN₃, 0.5% BSA, pH 7.4). The cell suspension (100 μl) containing 500,000 cells were placed into a glass tube and incubated with ¹²⁵I-WL38 peptides at various concentrations. Unbound peptide was removed by centrifugation. Cells were dissolved in 1M NaOH, and applied for ¹²⁵I counting. Binding of the WL38 peptide to Raji cell which were used as a negative control was performed in a similar manner. Non-specific binding of the WL38 to A2870/R cells was determined on the background of unlabeled WL3 8 at concentration 100 μM.

For orientation: IC50 means the concentration that inhibits the measured activity by half.

On to `COc1cccc2c1C(=O)c1c(O)c3c(c(O)c1C2=O)C[C@@](O)(C(=O)CO)C[C@@H]3O[C@H]1C[C@H](N)[C@H](O)[C@H](C)O1` [unconjugated DXR, doxorubicin], for which the half-inhibitory concentration (IC50) in [1] (336 h, after two weeks of storage at −70° C., read-out: IC50, PC3, after freezing the stock solution) is 0.022 µg/mL (≈ 0.0405 µM); in data set [1] (read-out: IC50, PC3, before freezing the stock solution) it was 0.027 µg/mL (≈ 0.0497 µM); in data set [2] (average, read-out: IC50 (average), HER-2-negative breast carcinomas), 0.025 ± 0.025 µg/mL (≈ 0.046 µM); in [2] (read-out: IC50 (span over specimens), HER-2-negative breast carcinomas) it was 0.004 to 0.083 µg/mL (≈ 0.00736 to 0.153 µM); in [3], 0.03 ± 0.02 µg/mL (≈ 0.0552 µM); in data set [5], 0.019 ± 0.02 µg/mL (≈ 0.035 µM). Further, the IC50 in [6] turned out to be 14.2 µM; in data set [8] it was 2.1 µM; in data set [9], 0.013 ± 0.004 µg/mL (≈ 0.0239 µM). Besides, the “DXR per gram in tumor, heart and muscle tissues” value in data set [4] is on record as “Approximately equal amounts”. In [7], the tumor growth inhibition amounted to 70%. Moreover, the deaths entry in the data set with HUT 78 tumor (15 mg/kg dose) was “one death out of four animals”. For the same molecule, in the data set on HUT 78 tumor (HUT 78 tumor study, 30 mg/kg, study period 21 days), the survival of animals entry is “five out of five animals died within seven days”. Moreover, the “mean tumor growth inhibition at day 15” value with HUT 78 tumor (single dose 15 mg/kg (equivalent doxorubicin dose)) came to 12%.

B1: WL38 peptide (MVKDLSNPSRYL) (peptide)
peptide: MVKDLSNPSRYL
modifications: also: 125I-iodinated, residue not given here
notes: Synthetic HER-2-targeting peptide; also called TT38; 125I-WL38
In the case of B1, the binding result in data set [10] is on record as “binds”.
